# Results as given in ChEMBL document CHEMBL1156829 (Proc Natl Acad Sci U S A, 2008).
# pEC50: −log10 of the molar value.
# What was measured:
# [1] = NOVARTIS: Cytotoxicity against human hepatocellular carcinoma cell line (Huh7); assay type: toxicity, cell-based, Huh-7; settings: Huh7 cells (hepatocellular carcinoma cell line)
# [2] = test system: Plasmodium falciparum; test: NOVARTIS: Inhibition of Plasmodium falciparum 3D7 (drug-susceptible) proliferation in erythrocyte-based infection assay; assay type: functional, organism-based; settings: Plasmodium falciparum, 3D7
# [3] = test system: Plasmodium falciparum; test: NOVARTIS: Inhibition of Plasmodium falciparum W2 (drug-resistant) proliferation in erythrocyte-based infection assay; assay type: functional, organism-based; settings: Plasmodium falciparum, W2; read-out: EC50
SMILES,CC50 [1] [nM],pEC50 [2],pEC50 [3]
CCOC(=O)c1cnc2ccc(CC)cc2c1O,> 100000,6.15,6.28
Cc1cc(NCCN2CCCCC2)c2ccc3ccccc3c2n1,15600,7.36,7.09
Cc1nc2ccccc2c(O)c1CC=C(Cl)Cl,> 100000,6.30,6.29
CCOC(=O)C1=C(C)NC2=C(C(=O)C(C(=O)OCC)C(c3cccc(OC)c3)C2)C1c1cc(OC)c(OC)c(OC)c1 (stereo not given),> 100000,5.96,6.31
CCC(c1nc2ccccc2c(=O)n1-c1cccc(C)c1)N(Cc1ccccc1)C(=O)Nc1c(C(C)C)cccc1C(C)C (stereo not given),> 100000,6.40,6.31
CC(C)N(C)Cc1cc(-c2nc3ccccc3s2)ccc1O,> 100000,5.10,6.29
CCCCc1c(C)nc2ccc(Br)cc2c1O,> 100000,5.71,6.27
CCCCCCCn1c(=N)n(CC(O)c2ccc(Cl)c(Cl)c2)c2ccccc21 (stereo not given),6500,6.69,7.47
COc1cccc(NC(=O)c2ccc(NCCCN3CC(C)CC(C)C3)c([N+](=O)[O-])c2)c1 (stereo not given),> 100000,6.56,6.29
CCCCCCCCn1c(C)[n+](CC)c2cc(C(=O)OCC)ccc21,> 100000,6.16,6.30
O=C(c1ccc2nc(N3CCCCC3)sc2c1)N1CCN(Cc2ccccc2)CC1,> 100000,6.04,6.30
COc1ccccc1-n1c(C(C)N(C)C(=O)Nc2ccccc2F)nc2ccccc2c1=O (stereo not given),> 12400,6.79,7.21
O=C1Nc2ccccc2C12Nc1ccccc1-c1nc3ccccc3n12 (stereo not given),> 100000,5.96,6.30
Cc1cc2c(cc1S(=O)(=O)N1CCCCC1C)OCC(=O)N2 (stereo not given),> 100000,< 4.90,6.30
CCC1CCCCN1CCCNC(=O)c1cn(CC)c(=O)c2cc(OC)c(OC)cc12 (stereo not given),> 100000,6.35,6.30
CC1=C(C(=O)Nc2ccc(C)cc2C)C(c2ccc([N+](=O)[O-])cc2)n2ncc(C(=O)Nc3ccc(F)cc3)c2N1 (stereo not given),> 100000,6.23,6.29
Cc1cc(C)cc(NC(=S)NCCO)c1,> 100000,5.41,6.29
COc1ccc(C(=O)C[n+]2ccc3c(c2)nc(-c2ccc(OC)cc2OC)n3C)cc1,> 100000,6.04,6.29
CN(CCCNc1ccnc2cc(Cl)ccc12)C(=O)c1ccc(Br)cc1,2610,6.16,7.87
COc1ccccc1NC1=C(N2CCCCC2)C(=O)c2ccccc2C1=O,7870,7.55,7.40
Oc1c(C(Nc2ccccn2)c2cccc(Oc3ccccc3)c2)ccc2cccnc12 (stereo not given),62800,6.48,6.49
COc1ccc(C(NC(=O)c2cccnc2)c2cc(Cl)c3cccnc3c2O)cc1 (stereo not given),> 100000,6.02,6.28
COc1cc2ncnc(NC3CCN(Cc4ccccc4)CC3)c2cc1OC,> 100000,6.40,6.31
O=C(Nc1c2ccccc2nc2ccccc12)c1cc(Cl)ccc1O,> 100000,5.95,6.32

SMILES,CC50 [1] [nM],pEC50 [2],pEC50 [3]
S=P(OCC1C(COP(=S)(c2ccccc2)c2ccccc2)C1(Cl)Cl)(c1ccccc1)c1ccccc1 (stereo not given),> 100000,6.41,6.32
C=C[C@H]1CN2CC[C@H]1C[C@@H]2[C@@H](OC(=O)Cc1ccccc1)c1ccnc2ccccc12,> 10000,7.31,7.29
O=C(C1CCC1)N1CCOc2c(cc(-c3csc4ccccc34)cc2OCCc2ccccn2)C1,> 99600,6.12,6.29
O=[N+]([O-])c1cc(Cl)c(N2CCOCC2)cc1N1CCOCC1,> 100000,5.98,6.29
OC(CNCC1CCCO1)Cn1c2ccc(Br)cc2c2cc(Br)ccc21 (stereo not given),20300,6.58,7.00
CN(C)CC(O)Cn1c2ccccc2c2ccccc21 (stereo not given),52800,< 4.93,6.56
O=C1C=C(Nc2cccc(C(F)(F)F)c2)C(=O)c2ccccc21,> 100000,6.26,6.28
c1cc(C2=NCCN2)ccc1OCCCOc1ccc(C2=NCCN2)cc1,> 10000,8.25,7.29
CCOC(=O)c1ccc2nc(-c3ccccc3)cc(O)c2c1,> 100000,6.26,6.31
O=C(C(Cc1c[nH]c2ccccc12)NS(=O)(=O)c1ccc(Cl)cc1)N1CCCCC1 (stereo not given),> 100000,6.14,6.31
Clc1ccc2[nH]c3c(NCCCN4CCOCC4)ncnc3c2c1,31200,6.96,6.82
N#Cc1c2c(c(NCc3ccccn3)n3c1nc1ccccc13)CCCC2,> 100000,6.65,6.28
CN(C)[C@@H]1CCN(Cc2cccc(Cl)c2)C[C@@H]1CCC(=O)NCCCN1CCOCC1,> 2940,6.23,> 7.81
CCOC(=O)COc1ccc(C2NC(=S)NC(C)=C2C(C)=O)cc1OC (stereo not given),> 100000,5.39,6.30
Cc1cc(C)n(-c2ccc(NC(=O)C3CCN(Cc4ccc5nonc5c4)CC3)cc2)n1,> 83200,6.37,6.39
CSc1nnc(-c2cccc([N+](=O)[O-])c2)n1Cc1ccccc1,> 100000,6.19,6.31
Clc1cccc(-c2cn3ccnc3c(N3CCN(c4ccncc4)CC3)n2)c1,> 10000,< 5.90,< 7.28
COc1ccc(C[n+]2cc(-c3ccc(Cl)cc3)n3ccccc32)cc1,> 100000,6.38,6.28
COc1cccc(N2C(N)=NC(N)=NC2(C)C)c1,> 100000,7.26,6.30
COc1ccc(C2c3[nH]c4ccccc4c3C[C@H]3C(=O)N(CCC(C)C)CC(=O)N23)cc1 (stereo not given in full),> 100000,5.50,6.30
CC(C)CNC(=O)c1cnc(NCCCN2CCCCC2C)nc1NC1CCCC1 (stereo not given),> 10000,6.04,7.28
O=C(/C=C/c1cccnc1)C12CC3CC(CC(C3)C1)C2,> 10000,6.99,7.28
CCCCNC(=O)C(CC(C)C)N1C(=O)c2cc(NC(C)=O)ccc2NC(=O)[C@@H]1C (stereo not given in full),> 12800,7.55,7.17
Cc1ccccc1CN1CCN(CC=Cc2ccccc2)CCC1=O,> 100000,5.84,6.27

SMILES,CC50 [1] [nM],pEC50 [2],pEC50 [3]
Cc1cc(N2CCN(Cc3ccc(F)cc3)CC2)n2c(nc3ccccc32)c1C#N,> 100000,6.20,6.28
CCN1CCN(Cc2cc(Cl)cc(Cl)c2O)CC1,> 100000,5.52,6.28
Cc1cccc(N2C(=O)C3C(C2=O)C2(c4ccccc4)C(=O)C3(c3ccccc3)C(c3ccc4c(c3)OCO4)=C2c2ccc3c(c2)OCO3)c1 (stereo not given),> 100000,5.97,6.29
N#Cc1c2c(c(N3CCN(C4CCCCC4)CC3)n3c1nc1ccccc13)CCC2,> 100000,6.74,6.29
CCN(CC)C(=O)COc1ccc(-c2nnc(N3CCCCC3)c3ccccc23)cc1,> 100000,5.76,6.29
CCOC(=O)C1CCN(C(=O)CN2C(=O)c3ccccc3C2c2c[nH]c3ccccc23)CC1 (stereo not given),> 100000,6.28,6.29
Cc1cnc(C)c(-c2ccc(O)c(CNCC3(N4CCCCC4)CCCCC3)c2)n1,> 7780,6.49,7.40
CCCCOc1ccc(C(=O)Nc2cc(C)on2)cc1,> 100000,5.50,6.29
COc1cc(C(=O)NC2CC3CCC(C2)N3C2CC2)cc(OC)c1OC (stereo not given),> 100000,6.35,6.31
Cc1cc(Nc2ccc([N+](=O)[O-])cc2O)nc2ccccc12,28000,6.45,6.84
C=CCOc1ccc(C2C(C(=O)OCC)=C(C)N=c3sc(=Cc4ccccc4O)c(=O)n32)cc1OCC (stereo not given),53300,6.22,6.58
CCCNC1=C(N(C(C)=O)c2cccc(F)c2)C(=O)c2ccccc2C1=O,5390,7.54,7.55
COc1ccc(-c2c[n+](CC(=O)c3cccc(OC)c3)c3n2CCC3)cc1,> 100000,6.02,6.28
CCc1cc2c(NCCN3CCCCC3)ncnc2s1,> 96100,5.88,6.33
O=c1[nH]n(CC2COC(c3ccccc3)O2)c(=O)c2ccccc12 (stereo not given),> 100000,6.17,6.31
CCOC(=O)c1cnc2ccccc2c1Nc1ccc(C(C)=O)cc1,> 73800,6.46,6.41
CCS/C(Cl)=C(/NC(=O)c1ccccc1)[P+](c1ccccc1)(c1ccccc1)c1ccccc1,> 10000,6.96,7.28
CC1=C(C(=O)OC2CCCC2)C(c2ccc(Cl)cc2)C2=C(CC(c3ccc(Cl)cc3)CC2=O)N1 (stereo not given),> 100000,5.59,6.31
N#CC(=Cc1ccc(Sc2ccccc2)o1)c1nc2ccccc2[nH]1,> 100000,5.98,6.30
C#CC[N+]1(CC#Cc2cccc3ccccc23)CCCCC1,> 100000,6.01,6.32
CN(CCCNc1ccnc2cc(Cl)ccc12)C(=O)c1ccc(C(F)(F)F)cc1,64600,6.78,6.50
O=S(=O)(c1ccc(Cl)cc1)N1CCN(C(=S)NCc2ccco2)CC1,> 100000,6.01,6.28
